For data set [1], the target named is T1, NaV1.1 (Homo sapiens (Human), UniProt P35498). Nature of the data set: Sodium Influx Assay (Flux), NaV1.1.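 Note: channels co-expressed with human β1 subunit and held open by modulators, cells exposed to compounds for one hour at room temperature, IC50 from percent inhibition of influx.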 In kind it is cell-based. The following applies: Trex HEK293 cells, ANG2 dye, inactivated state.
Data set [2] concerns the target T1, NaV1.1. Nature of the data set: Electrophysiological Assay (EP), patch voltage clamp, NaV1.1.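 Note: sodium current block measured at ambient temperature, holding at fully inactivating potential, 20 ms repolarization to −150 mV before test pulse, versus 0.5% DMSO control currents.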 Format: cell-based. The settings on record: HEK-293 cells, whole-cell patch clamp.
For data set [3], the target named is NaV1.5 (Homo sapiens (Human), UniProt Q14524). Nature of the data set: Sodium Influx Assay (Flux), NaV1.5. The settings on record: read-out: Flux NaV1.5 IC50; Trex HEK293 cells, ANG2 dye, inactivated state.
The target in data set [4] is T2, NaV1.6 (Homo sapiens (Human), UniProt Q9UQD0). Nature of the data set: Electrophysiological Assay (EP), patch voltage clamp, NaV1.6.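 Note: sodium current recorded at ambient temperature, channels held inactivated then briefly repolarized to −150 mV for 20 ms before a test pulse, control currents in 0.5% DMSO.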 Format: cell-based. The following applies: HEK-293 cells, whole-cell patch clamp. In general terms: In patch-clamp work, channel activity is measured electrically.
For data set [5], the target named is T2, NaV1.6. Nature of the data set: Sodium Influx Assay (Flux), NaV1.6.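 Note: Tetracycline-induced cells, compounds applied for one hour at room temperature with modulators holding channels open, IC50 from percent inhibition of sodium influx.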 In kind it is cell-based. The settings on record: Trex HEK293 cells, ANG2 dye, inactivated state.

Structures can show the parent of a compound that is named as a salt.

Sequence of NaV1.5 (Q14524 other isoform, or with tags, fused parts or gaps): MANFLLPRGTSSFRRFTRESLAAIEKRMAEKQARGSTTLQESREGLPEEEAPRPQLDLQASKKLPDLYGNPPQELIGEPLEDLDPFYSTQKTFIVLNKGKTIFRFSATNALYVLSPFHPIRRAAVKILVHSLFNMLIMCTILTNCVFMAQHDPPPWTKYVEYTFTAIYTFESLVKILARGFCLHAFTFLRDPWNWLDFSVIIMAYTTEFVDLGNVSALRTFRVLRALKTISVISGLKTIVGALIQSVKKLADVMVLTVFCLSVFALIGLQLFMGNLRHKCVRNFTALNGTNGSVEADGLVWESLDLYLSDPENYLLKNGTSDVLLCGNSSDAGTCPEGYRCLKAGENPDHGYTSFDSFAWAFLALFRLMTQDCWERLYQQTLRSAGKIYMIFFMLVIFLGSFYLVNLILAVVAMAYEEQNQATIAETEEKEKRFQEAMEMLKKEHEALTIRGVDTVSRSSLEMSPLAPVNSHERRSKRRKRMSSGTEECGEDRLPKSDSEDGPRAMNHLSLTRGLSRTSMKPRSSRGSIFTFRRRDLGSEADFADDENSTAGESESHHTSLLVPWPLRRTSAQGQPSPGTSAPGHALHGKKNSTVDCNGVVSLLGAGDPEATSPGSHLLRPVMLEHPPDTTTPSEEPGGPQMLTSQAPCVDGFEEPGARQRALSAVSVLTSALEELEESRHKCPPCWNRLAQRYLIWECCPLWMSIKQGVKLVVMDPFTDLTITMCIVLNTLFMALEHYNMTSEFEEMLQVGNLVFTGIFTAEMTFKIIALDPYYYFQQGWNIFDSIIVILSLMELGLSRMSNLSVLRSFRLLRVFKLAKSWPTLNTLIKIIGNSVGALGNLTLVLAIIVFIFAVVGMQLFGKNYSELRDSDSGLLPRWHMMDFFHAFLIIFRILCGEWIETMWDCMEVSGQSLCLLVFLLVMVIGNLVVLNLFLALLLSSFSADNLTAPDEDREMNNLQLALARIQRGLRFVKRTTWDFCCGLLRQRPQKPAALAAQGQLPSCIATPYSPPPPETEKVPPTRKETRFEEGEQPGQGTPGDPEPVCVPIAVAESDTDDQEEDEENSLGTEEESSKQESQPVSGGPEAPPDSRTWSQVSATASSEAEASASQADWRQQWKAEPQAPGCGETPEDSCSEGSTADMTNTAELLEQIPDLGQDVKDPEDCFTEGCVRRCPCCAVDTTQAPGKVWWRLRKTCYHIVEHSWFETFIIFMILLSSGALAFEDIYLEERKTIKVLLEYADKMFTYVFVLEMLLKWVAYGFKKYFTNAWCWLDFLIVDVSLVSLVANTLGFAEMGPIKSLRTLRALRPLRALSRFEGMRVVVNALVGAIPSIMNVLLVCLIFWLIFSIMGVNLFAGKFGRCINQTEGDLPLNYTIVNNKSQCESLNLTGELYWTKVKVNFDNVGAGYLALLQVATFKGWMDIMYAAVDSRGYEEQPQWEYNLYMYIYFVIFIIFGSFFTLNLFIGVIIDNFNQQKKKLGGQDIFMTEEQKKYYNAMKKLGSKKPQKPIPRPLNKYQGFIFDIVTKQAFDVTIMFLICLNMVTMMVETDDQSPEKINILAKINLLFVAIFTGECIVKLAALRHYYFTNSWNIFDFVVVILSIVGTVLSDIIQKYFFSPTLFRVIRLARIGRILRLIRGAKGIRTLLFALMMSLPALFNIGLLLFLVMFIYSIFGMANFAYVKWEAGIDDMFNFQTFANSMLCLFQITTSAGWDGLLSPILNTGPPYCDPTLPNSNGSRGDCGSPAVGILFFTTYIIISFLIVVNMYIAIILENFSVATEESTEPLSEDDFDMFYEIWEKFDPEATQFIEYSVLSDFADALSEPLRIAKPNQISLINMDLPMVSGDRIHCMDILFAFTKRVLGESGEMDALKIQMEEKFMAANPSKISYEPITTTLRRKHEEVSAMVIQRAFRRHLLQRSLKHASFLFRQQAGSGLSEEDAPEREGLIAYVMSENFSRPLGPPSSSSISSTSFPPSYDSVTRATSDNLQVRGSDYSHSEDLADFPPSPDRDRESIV
T2 sequence (Q9UQD0 whole entry): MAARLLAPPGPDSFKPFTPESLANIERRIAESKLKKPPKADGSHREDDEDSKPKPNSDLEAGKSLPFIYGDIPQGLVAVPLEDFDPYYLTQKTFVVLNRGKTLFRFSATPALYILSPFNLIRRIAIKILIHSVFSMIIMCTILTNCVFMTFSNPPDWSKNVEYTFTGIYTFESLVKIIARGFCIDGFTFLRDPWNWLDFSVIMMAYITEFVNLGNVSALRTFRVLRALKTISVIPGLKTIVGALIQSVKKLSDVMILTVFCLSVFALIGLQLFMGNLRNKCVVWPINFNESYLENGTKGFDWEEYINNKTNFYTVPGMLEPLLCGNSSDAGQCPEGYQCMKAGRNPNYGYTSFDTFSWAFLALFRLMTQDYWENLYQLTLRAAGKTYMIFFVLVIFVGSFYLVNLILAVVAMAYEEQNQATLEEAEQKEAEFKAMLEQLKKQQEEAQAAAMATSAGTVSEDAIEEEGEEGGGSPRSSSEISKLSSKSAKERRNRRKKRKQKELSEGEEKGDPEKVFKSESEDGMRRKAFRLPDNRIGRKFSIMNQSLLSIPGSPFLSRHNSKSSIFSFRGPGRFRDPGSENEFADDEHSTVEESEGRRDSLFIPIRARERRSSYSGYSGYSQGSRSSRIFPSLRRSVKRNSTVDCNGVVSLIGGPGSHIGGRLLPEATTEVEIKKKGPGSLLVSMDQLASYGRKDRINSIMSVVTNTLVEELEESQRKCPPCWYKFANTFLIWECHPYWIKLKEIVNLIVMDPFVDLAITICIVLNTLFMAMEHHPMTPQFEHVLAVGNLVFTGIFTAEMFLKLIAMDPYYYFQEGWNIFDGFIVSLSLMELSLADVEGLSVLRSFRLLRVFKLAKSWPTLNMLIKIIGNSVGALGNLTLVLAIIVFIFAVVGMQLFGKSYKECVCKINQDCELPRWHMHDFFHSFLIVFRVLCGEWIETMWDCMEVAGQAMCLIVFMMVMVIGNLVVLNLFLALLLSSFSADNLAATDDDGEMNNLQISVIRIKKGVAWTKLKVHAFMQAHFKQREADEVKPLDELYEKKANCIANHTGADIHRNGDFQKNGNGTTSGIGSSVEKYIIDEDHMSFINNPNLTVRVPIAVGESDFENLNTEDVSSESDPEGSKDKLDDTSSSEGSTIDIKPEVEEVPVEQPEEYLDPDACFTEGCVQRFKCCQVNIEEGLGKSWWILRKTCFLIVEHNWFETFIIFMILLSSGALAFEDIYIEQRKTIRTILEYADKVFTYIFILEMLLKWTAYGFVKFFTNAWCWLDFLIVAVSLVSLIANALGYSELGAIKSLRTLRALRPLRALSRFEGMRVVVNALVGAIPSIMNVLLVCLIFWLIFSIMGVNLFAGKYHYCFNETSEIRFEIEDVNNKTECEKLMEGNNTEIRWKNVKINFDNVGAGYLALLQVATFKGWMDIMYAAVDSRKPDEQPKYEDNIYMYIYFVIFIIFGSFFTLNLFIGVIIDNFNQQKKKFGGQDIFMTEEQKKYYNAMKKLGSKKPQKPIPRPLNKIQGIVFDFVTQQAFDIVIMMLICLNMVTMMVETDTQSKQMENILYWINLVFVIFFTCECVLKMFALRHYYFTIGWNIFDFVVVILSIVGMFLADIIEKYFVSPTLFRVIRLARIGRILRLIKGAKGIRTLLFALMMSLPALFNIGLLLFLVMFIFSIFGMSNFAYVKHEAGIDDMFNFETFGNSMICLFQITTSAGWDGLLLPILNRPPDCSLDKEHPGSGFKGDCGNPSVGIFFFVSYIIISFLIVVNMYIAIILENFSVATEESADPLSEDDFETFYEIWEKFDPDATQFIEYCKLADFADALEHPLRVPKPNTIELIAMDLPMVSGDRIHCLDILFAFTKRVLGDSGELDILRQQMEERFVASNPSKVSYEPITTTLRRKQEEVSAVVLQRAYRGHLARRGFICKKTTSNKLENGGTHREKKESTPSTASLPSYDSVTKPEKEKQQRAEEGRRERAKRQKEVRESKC

In the case of “3-chloro-4-(1-phenylethylamino)-N-(1,2,4-thiadiazol-5-yl)benzenesulfonamide [Example 142]”, the IC50 (commonly the concentration that gives 50% inhibition) in data set [1] came out at 3230 nM; in data set [2], 10000 nM; in data set [3], 21200 nM; in data set [4], 106 nM; in data set [5], 187 nM.

On to “5-chloro-2-fluoro-4-((1-(2-fluorophenyl)ethyl)amino)-N-(thiazol-2-yl)benzenesulfonamide [Example 144]”, for which the IC50 in data set [1] worked out at 2540 nM; in data set [2], 907 nM; in data set [3], 9670 nM; in data set [4] it was 34 nM; in data set [5], 214 nM.

On to `O=S(=O)(Nc1nccs1)c1ccc(N[C@H](c2ccccc2)C(F)(F)F)c(Cl)c1` [Example 4, (R)-3-chloro-N-(thiazol-2-yl)-4-((2,2,2-trifluoro-1-phenylethyl)amino)benzenesulfonamide formate], for which the IC50 in data set [1] turned out to be 3400 nM; in data set [2], 5310 nM; in data set [3], 7010 nM; in data set [4] it was 41 nM; in data set [5] it was 794 nM.

Take `C[C@H](Nc1cc(F)c(S(=O)(=O)Nc2nccs2)cc1Cl)c1cc(Cl)ccc1F` [Example 8, (S)-5-chloro-4-((1-(5-chloro-2-fluorophenyl)ethyl)amino)-2-fluoro-N-(thiazol-2-yl)benzenesulfonamide]: the IC50 in data set [1] worked out at 1630 nM; in data set [2] it was 420 nM; in data set [3], 5370 nM; in data set [4], 10 nM; in data set [5] it was 137 nM.

As to `C[C@H](Nc1ccc(S(=O)(=O)Nc2nccs2)c(F)c1Cl)c1ccccc1F` [Example 9, (S)-3-chloro-2-fluoro-4-((1-(2-fluorophenyl)ethyl)amino)-N-(thiazol-2-yl)benzenesulfonamide], the IC50 in data set [1] is 2360 nM; in data set [2], 4340 nM; in data set [3], 4220 nM; in data set [4], 26 nM; in data set [5], 181 nM.

Take `C[C@H](Oc1ccc(S(=O)(=O)Nc2nccs2)c(F)c1Cl)c1ccccc1F` [Example 10, (S)-3-chloro-2-fluoro-4-(1-(2-fluorophenyl)ethoxy)-N-(thiazol-2-yl)benzenesulfonamide]: the IC50 turned out to be 1630 nM in data set [1]; 5470 nM in data set [2]; 2350 nM in data set [3]; 128 nM in data set [4]; 461 nM in data set [5].

For `O=S(=O)(Nc1nccs1)c1cc(Cl)c(OCc2cccc3ccncc23)cc1F` [Example 11, 5-chloro-2-fluoro-4-(isoquinolin-8-ylmethoxy)-N-(thiazol-2-yl)benzenesulfonamide], the IC50 in data set [1] turned out to be 30000 nM; in data set [2], 10000 nM; in data set [3], 30000 nM; in data set [4], 34 nM; in data set [5], 255 nM.

For `O=S(=O)(Nc1nccs1)c1cc(Cl)c(NCc2ccccc2CN2CCC2)cc1F` [Example 16, 4-((2-(azetidin-1-ylmethyl)benzyl)amino)-5-chloro-2-fluoro-N-(thiazol-2-yl)benzenesulfonamide 2,2,2-trifluoroacetate], the IC50 in data set [1] is 5410 nM; in data set [2] it was 2190 nM; in data set [3], 23500 nM; in data set [4] it was 4 nM; in data set [5], 29 nM.

For the molecule `O=S(=O)(Nc1cscn1)c1cc(Cl)c(NCc2ccccc2CN2CCC2)cc1F` [Example 19, 4-((2-(azetidin-1-ylmethyl)benzyl)amino)-5-chloro-2-fluoro-N-(thiazol-4-yl)benzenesulfonamide 2,2,2-trifluoroacetate], the IC50 in data set [1] turned out to be 11700 nM; in data set [2] it was 10000 nM; in data set [3], 18500 nM; in data set [4], 130 nM; in data set [5] it was 425 nM.

As to `O=S(=O)(Nc1cscn1)c1cc(Cl)c(NC2(c3ccccc3)CC2)cc1F` [Example 20, 5-chloro-2-fluoro-4-((1-phenylcyclopropyl)amino)-N-(thiazol-4-yl)benzenesulfonamide], the IC50 in data set [1] was 30000 nM; in data set [2] it was 10000 nM; in data set [3], 30000 nM; in data set [4], 1180 nM; in data set [5], 2050 nM.

On to `C[C@H](Nc1cc(F)c(S(=O)(=O)Nc2cccc(F)n2)cc1Cl)c1ccccc1F` [Example 22, (S)-5-chloro-2-fluoro-4-((1-(2-fluorophenyl)ethyl)amino)-N-(6-fluoropyridin-2-yl)benzenesulfonamide], for which the IC50 was 4290 nM in data set [1]; 9000 nM in data set [2]; 4860 nM in data set [3]; 259 nM in data set [4]; 1300 nM in data set [5].

Take `CC[C@H](Nc1ccc(S(=O)(=O)Nc2nccs2)cc1)c1ccccc1` [Example 84, (S)-4-((1-phenylpropyl)amino)-N-(thiazol-2-yl)benzenesulfonamide]: the IC50 in data set [1] came out at 2410 nM; in data set [2] it was 10000 nM.

With `CCC(c1ccccc1)N(C)c1ccc(S(=O)(=O)Nc2nccs2)cc1Cl` (stereo not drawn) [Example 90, 3-chloro-4-(methyl(1-phenylpropyl)amino)-N-(thiazol-2-yl)benzenesulfonamide], the IC50 in data set [1] turned out to be 4050 nM; in data set [2], 2010 nM.

Take `O=S(=O)(Nc1cscn1)c1ccc(NCc2c(F)ccc(F)c2CN2CCC2)c(F)c1F` [Example 213, 4-((2-(azetidin-1-ylmethyl)-3,6-difluorobenzyl)amino)-2,3-difluoro-N-(thiazol-4-yl)benzenesulfonamide 2,2,2-trifluoroacetate]: the IC50 was found to be 30000 nM in data set [1], 30000 nM in data set [3], 21 nM in data set [4] and 156 nM in data set [5].

With `O=S(=O)(Nc1cscn1)c1c(F)cc(NCc2c(F)ccc(F)c2CN2CCC2)c(F)c1F` [Example 215, 4-((2-(azetidin-1-ylmethyl)-3,6-difluorobenzyl)amino)-2,3,6-trifluoro-N-(thiazol-4-yl)benzenesulfonamide 2,2,2-trifluoroacetate], the IC50 amounted to 10300 nM in data set [1], 21500 nM in data set [3], 3 nM in data set [4] and 21 nM in data set [5].

Turning to `Cc1c(NCc2c(F)cccc2CN2CCC2)cc(F)c(S(=O)(=O)Nc2cscn2)c1F` [Example 304, 4-((2-(azetidin-1-ylmethyl)-6-fluorobenzyl)amino)-2,6-difluoro-3-methyl-N-(thiazol-4-yl)benzenesulfonamide 2,2,2-trifluoroacetate], the IC50 in data set [1] was found to be 5300 nM; in data set [3], 21200 nM; in data set [4], 2 nM; in data set [5], 8 nM.

`Cc1c(NCc2ccccc2CN2CCC2)cc(F)c(S(=O)(=O)Nc2ccncn2)c1F` [Example 310, 4-((2-(azetidin-1-ylmethyl)benzyl)amino)-2,6-difluoro-3-methyl-N-(pyrimidin-4-yl)benzenesulfonamide 2,2,2-trifluoroacetate]: the IC50 worked out at 20300 nM in data set [1], 30000 nM in data set [3], 11 nM in data set [4] and 10 nM in data set [5].

For the molecule `Cc1cc(-c2cccc(F)c2CNc2cc(F)c(S(=O)(=O)Nc3cscn3)c(F)c2)ccn1` [Example 317, 2,6-difluoro-4-((2-fluoro-6-(2-methylpyridin-4-yl)benzyl)amino)-N-(thiazol-4-yl)benzenesulfonamide formate], the IC50 was 3910 nM in data set [1], 30000 nM in data set [3], 982 nM in data set [4] and 328 nM in data set [5].

In the case of `O=S(=O)(Nc1cccc(F)n1)c1c(F)cc(NCc2c(F)cccc2CN2CCC2)cc1F` [Example 322, 4-((2-(azetidin-1-ylmethyl)-6-fluorobenzyl)amino)-2,6-difluoro-N-(6-fluoropyridin-2-yl)benzenesulfonamide formate], the IC50 in data set [1] was 7750 nM; in data set [3], 30000 nM; in data set [4], 47 nM; in data set [5], 114 nM.

Consider `O=S(=O)(Nc1ncns1)c1c(F)cc(NCc2ccccc2CN2CCC2)c(Cl)c1F` [Example 327, 4-((2-(azetidin-1-ylmethyl)benzyl)amino)-3-chloro-2,6-difluoro-N-(1,2,4-thiadiazol-5-yl)benzenesulfonamide formate], for which the IC50 in data set [1] is 4440 nM; in data set [3] it was 30000 nM; in data set [4], 1 nM; in data set [5] it was 3 nM.

For the molecule `O=S(=O)(Nc1ccccn1)c1c(F)cc(NCc2c(F)cccc2CN2CCC2)cc1F` [Example 328, 4-((2-(azetidin-1-ylmethyl)-6-fluorobenzyl)amino)-2,6-difluoro-N-(pyridin-2-yl)benzenesulfonamide], the IC50 in data set [1] is 30000 nM; in data set [3], 30000 nM; in data set [4], 1040 nM; in data set [5], 3820 nM.

Regarding `Cc1c(NCc2ccccc2CN2CCC2)cc(F)c(S(=O)(=O)Nc2ncns2)c1F` [Example 330, 4-((2-(azetidin-1-ylmethyl)benzyl)amino)-2,6-difluoro-3-methyl-N-(1,2,4-thiadiazol-5-yl)benzenesulfonamide], the IC50 in data set [1] is 2000 nM; in data set [3] it was 30000 nM; in data set [4] it was 1 nM; in data set [5] it was 1 nM.

For the molecule `O=S(=O)(Nc1cscn1)c1cc(Cl)c(NCc2c(F)ccc3cn[nH]c23)cc1F` [Example 334, 5-chloro-2-fluoro-4-(((6-fluoro-1H-indazol-7-yl)methyl)amino)-N-(thiazol-4-yl)benzenesulfonamide formate], the IC50 was 4650 nM in data set [1], 30000 nM in data set [3], 2 nM in data set [4] and 29 nM in data set [5].

Values taken from patent publication US11174268B2, “Benzenesulfonamide compouds and their use as therapeutic agents” (Xenon Pharmaceuticals Inc., priority 2016, dated 2021).
